Data published in PubChem BioAssay (NCI).
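Compound exposure: 48 hours, 5 concentrations, 96-well plates. GI50 marks 50% less growth. TGI: total growth inhibition.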

Tests used:
Experiment in all cases: inhibition of tumour cell growth, NCI panel, 48 h
RXF 393 renal = system: RXF 393 renal
UACC-62 melanoma = system: UACC-62 melanoma
UO-31 renal = system: UO-31 renal
COLO 205 colon = system: COLO 205 colon
SN12C renal = system: SN12C renal
SW-620 colon = system: SW-620 colon
HOP-62 NSCLC = system: HOP-62 NSCLC
SK-MEL-28 melanoma = system: SK-MEL-28 melanoma
NCI-H460 lung = system: NCI-H460 lung
KM12 colon = system: KM12 colon
HCT-15 colon = system: HCT-15 colon
K-562 leukemia = system: K-562 leukemia
SF-268 CNS = system: SF-268 CNS
EKVX NSCLC = system: EKVX NSCLC

Row | SMILES | TGI (RXF 393 renal) [µM] | TGI (UACC-62 melanoma) [µM] | TGI (UO-31 renal) [µM] | TGI (COLO 205 colon) [µM] | TGI (SN12C renal) [µM] | TGI (SW-620 colon) [µM] | TGI (HOP-62 NSCLC) [µM] | TGI (SK-MEL-28 melanoma) [µM] | TGI (NCI-H460 lung) [µM] | TGI (KM12 colon) [µM] | TGI (HCT-15 colon) [µM] | TGI (K-562 leukemia) [µM] | TGI (SF-268 CNS) [µM] | TGI (EKVX NSCLC) [µM] | GI50 (UO-31 renal) [µM] | GI50 (SN12C renal) [µM] | GI50 (HOP-62 NSCLC) [µM] | GI50 (SK-MEL-28 melanoma) [µM] | GI50 (HCT-15 colon) [µM] | GI50 (K-562 leukemia) [µM]
1 | C=CCOC1OC(CS(=O)(=O)O)C(O)C(O)C1O (centres undefined) | > 100 | > 100 | > 100 | > 100 | > 100 | > 100 | > 100 | > 100 | > 100 | > 100 | > 100 | > 100 | – | – | – | – | – | – | – | –
2 | Nc1ccc2nc3ccc(N)cc3[n+](-c3ccccc3)c2c1 | > 100 | > 100 | > 100 | 26.9 | > 100 | > 100 | > 100 | > 100 | > 100 | > 100 | > 100 | > 100 | > 100 | > 100 | – | – | – | – | – | –
3 | O=c1[nH]/c(=C/c2ccc(OCc3ccccc3)cn2)c(=O)[nH]/c1=C/c1ccc(Cl)cc1 | > 28.3 | > 100 | > 100 | > 100 | > 100 | > 100 | 47.8 | > 100 | > 100 | > 100 | > 100 | > 100 | > 52.4 | > 100 | – | – | – | – | – | –
4 | CCCCNc1c(CN)cnc2cc(Cl)ccc12 | 29.5 | 29 | – | 21.5 | 37.9 | 33.5 | 35.4 | 30 | 25.8 | 36.7 | 33.1 | 32.1 | 57.6 | 17.1 | – | – | – | – | – | –
5 | CCOC(=O)c1sc2nc(SC)nc3c2c1NCN3c1ccc2c(c1)OCCCO2 | 35.6 | > 100 | > 100 | – | > 100 | > 100 | > 100 | > 100 | > 100 | > 100 | > 100 | > 100 | > 100 | > 100 | – | – | – | – | – | –
6 | O=C(N/N=C/c1ccc([N+](=O)[O-])cc1)c1cccc2nc3ccccc3nc12 | > 80.7 | > 100 | > 100 | > 100 | > 100 | > 100 | 22.7 | > 100 | > 64.4 | > 100 | > 100 | > 100 | > 100 | > 100 | – | – | – | – | – | –
7 | C(=C\c1nccs1)/c1cccc(/C=C/c2nccs2)n1 | > 50 | > 50 | > 50 | > 50 | > 50 | > 50 | > 50 | > 50 | > 50 | > 50 | > 50 | > 50 | > 50 | > 50 | – | – | – | – | – | –
8 | Cc1ccc2cc3c(ccc4ccccc43)c3c2c1CC3 | > 100 | > 100 | > 100 | > 100 | > 100 | > 100 | > 100 | > 100 | > 100 | > 100 | > 100 | > 100 | > 100 | > 100 | – | – | – | – | – | –
9 | CC(=O)OC1COC(n2nc(/C=C/c3ccc(Cl)cc3)c(=O)n(/N=C/c3ccccc3)c2=S)C(OC(C)=O)C1OC(C)=O (centres undefined) | > 100 | > 100 | > 100 | > 100 | > 100 | > 100 | > 100 | > 100 | > 100 | > 100 | > 100 | > 100 | > 100 | > 100 | – | – | – | – | – | –
10 | Cc1nc(Nc2ccc(F)cc2)c2sc(=S)n(-c3ccc(F)cc3)c2n1 | 25.1 | 29.6 | 30.1 | 27.5 | 27 | 21.4 | 24.1 | 27.8 | 28.8 | 28.2 | 13.8 | > 100 | 23 | 26.2 | – | – | – | – | – | –
11 | COc1ccccc1N1C(Cl)C(=O)C1c1c[nH]c2ccccc12 (centres undefined) | > 100 | > 100 | > 100 | > 100 | > 100 | > 100 | > 100 | > 100 | > 100 | > 100 | – | > 100 | > 100 | > 100 | – | – | – | – | – | –
12 | COc1cccc(Nc2nc(-c3cccs3)nc3ccc(Br)cc23)c1 | – | > 100 | > 100 | > 100 | > 100 | > 100 | 57.9 | – | > 100 | > 100 | > 100 | > 100 | > 100 | > 100 | – | – | – | – | – | –
13 | c1ccc(C(c2ccccc2)[P+](c2ccccc2)(c2ccccc2)c2ccccc2)cc1 | 10.6 | 3.56 | 7.95 | 1.2 | 11.7 | 13.2 | 6.63 | 5.18 | 11.5 | 2.7 | 17.9 | 10.1 | 15.3 | 50.4 | – | – | – | – | – | –
14 | CN(C)CCCNc1ncnc2nc[nH]c12 | > 100 | > 100 | > 100 | > 100 | > 100 | > 100 | > 100 | > 100 | > 100 | > 100 | > 100 | > 100 | > 100 | > 100 | – | – | – | – | – | –
15 | COc1ccc2oc(=O)cc(C)c2c1 | > 100 | > 100 | > 100 | > 100 | > 100 | > 100 | > 100 | > 100 | > 100 | > 100 | – | > 100 | > 100 | > 100 | – | – | – | – | – | –
16 | Cc1cc(OCc2nn(CN3CCN(C)CC3)c(=S)n2/N=C/c2ccc(-c3ccc(Cl)cc3Cl)o2)ccc1Cl | 41.3 | – | > 100 | – | – | 51 | > 100 | > 100 | > 100 | 47.6 | > 100 | > 100 | > 100 | > 100 | – | – | – | – | – | –
17 | FC(F)(F)C(C1=NC(C(F)(F)F)(C(F)(F)F)N=C(N2CCOCC2)O1)C(F)(F)F | 37 | 33.5 | > 100 | 38.9 | 36.1 | 41.9 | – | 52.4 | > 100 | > 100 | > 100 | – | > 100 | 61.3 | – | – | – | – | – | –
18 | COc1ccc(C2C3CCc4ccccc4C3=NN2S(=O)(=O)c2ccc(Cl)cc2)cc1 (centres undefined) | 58.4 | > 100 | > 100 | 23.1 | > 100 | > 100 | > 100 | – | > 100 | > 100 | 4.52 | 41.8 | > 100 | > 100 | – | – | – | – | – | –
19 | O=C(O)C(O)Cc1ccccn1 (centres undefined) | > 100 | > 100 | > 100 | > 100 | – | > 100 | > 100 | > 100 | > 100 | > 100 | > 100 | > 100 | > 100 | > 100 | – | – | – | – | – | –
20 | COc1cc(-c2c(C#N)c(N)c(C#N)c3c2COc2ccccc2-3)cc(OC)c1OC | 34.4 | > 100 | > 69.8 | > 100 | > 84.4 | > 100 | 19 | > 100 | > 100 | > 100 | > 100 | > 100 | 34 | > 69.4 | – | – | – | – | – | –
21 | O=C(c1ccccc1)[C@H]1Nc2ccc(Cl)cc2[C@H]2OCCC[C@@H]12 | 32.4 | 33.5 | 33 | 45.7 | 37.5 | 39.1 | 32.6 | 32.2 | 34.5 | 34.1 | 43.8 | 51.4 | 39.5 | 50.4 | – | – | – | – | – | –
22 | C=CC(=O)N1CCN(c2nc(OC[C@@H]3CCCN3C)nc3c2CCN(c2cccc4cccc(C)c24)C3)C[C@@H]1CC#N | – | – | 2.54 | – | 2.87 | – | 1.64 | 3.09 | – | – | 2.92 | 4.28 | – | – | 1.28 | 1.46 | < 0.01 | 1.71 | 1.45 | 1.71
23 | N=C(N)C(N=Nc1ccccc1)C(N)=O (centres undefined) | > 100 | > 100 | > 100 | > 100 | > 100 | > 100 | > 100 | > 100 | > 100 | > 100 | > 100 | > 100 | > 100 | > 100 | – | – | – | – | – | –
24 | CS/C(=N\C(=S)Nc1ccccc1)Nc1ccccc1 | 48.4 | 53.6 | 43.1 | 78.1 | 67.6 | > 100 | > 100 | > 100 | 48.7 | > 100 | 58.1 | > 100 | > 100 | – | – | – | – | – | – | –
25 | Nc1ccc(C2NC(=O)Cc3c2ccc2ccccc32)cc1 (centres undefined) | – | > 100 | > 100 | > 100 | – | > 100 | > 100 | > 100 | > 100 | > 100 | > 100 | > 100 | > 100 | > 100 | – | – | – | – | – | –
26 | NC(=O)NO | 1880 | 1560 | 1870 | > 2500 | 2390 | > 2500 | 2220 | > 2500 | 2040 | 2500 | 2360 | > 2260 | 2340 | > 2460 | – | – | – | – | – | –
